A short description of this assay: Inhibition of His-tagged human PDK1 expressed in Sf21 cells.

The results in this text go back to BindingDB's records for doi:10.1042/0264-6021:3510095 (University of Dundee, 2001).

SMILES strings stand for the structures.

Usually IC50 stands for the concentration needed to halve the response being measured.

On to `CCCCCCOC(=O)[C@@]1(O)C[C@H]2O[C@]1(C)n1c3ccccc3c3c4c(c5c6ccccc6n2c5c31)C(=O)NC4` [KT-5720], for which 300 nM corresponded to half-maximal inhibition (IC50).
